± gives the expanded uncertainty stated by the source.
Test: xn = mol fraction of the nth substance listed
Conditions: 93.2 kPa, Liquid; for speed of sound: Frequency=3 MHz, Sing-around technique in a fixed-path interferometer; for mass density: Vibrating tube method

CCCC(=O)[O-].CCCC[NH3+] [n-butylammonium butanoate] + CCCCCO
Conditions | mass density, 293.15 K [kg/m3] | mass density, 298.15 K [kg/m3] | mass density, 303.15 K [kg/m3] | mass density, 308.15 K [kg/m3] | mass density, 313.15 K [kg/m3] | speed of sound, 293.15 K [m/s] | speed of sound, 298.15 K [m/s] | speed of sound, 303.15 K [m/s] | speed of sound, 308.15 K [m/s] | speed of sound, 313.15 K [m/s]
x1 = 0.0504 | 824.946 ± 4 | 821.27 ± 4 | 817.568 ± 4 | 813.834 ± 4 | 810.063 ± 4 | 1301.5 ± 5.3 | 1284.3 ± 5.3 | 1267.3 ± 5.3 | 1250.4 ± 5.3 | 1233.7 ± 5.3
x1 = 0.1004 | 834.049 ± 4 | 830.391 ± 4 | 826.701 ± 4 | 822.985 ± 4 | 819.232 ± 4 | 1308.8 ± 5.3 | 1291.6 ± 5.3 | 1274.6 ± 5.3 | 1257.6 ± 5.3 | 1240.9 ± 5.3
x1 = 0.1491 | 842.19 ± 4 | 838.55 ± 4 | 834.886 ± 4 | 831.191 ± 4 | 827.462 ± 4 | 1315.5 ± 5.3 | 1298.2 ± 5.3 | 1281.2 ± 5.3 | 1264.2 ± 5.3 | 1247.4 ± 5.3
x1 = 0.2025 | 850.502 ± 4 | 846.885 ± 4 | 843.247 ± 4 | 839.579 ± 4 | 835.881 ± 4 | 1322.6 ± 5.3 | 1305.3 ± 5.3 | 1288.2 ± 5.3 | 1271.2 ± 5.3 | 1254.4 ± 5.3
x1 = 0.2513 | 857.492 ± 4 | 853.902 ± 4 | 850.29 ± 4 | 846.65 ± 4 | 842.977 ± 4 | 1328.8 ± 5.3 | 1311.6 ± 5.3 | 1294.5 ± 5.3 | 1277.5 ± 5.3 | 1260.7 ± 5.3
x1 = 0.3007 | 864.133 ± 4 | 860.568 ± 4 | 856.983 ± 4 | 853.372 ± 4 | 849.736 ± 4 | 1335 ± 5.3 | 1317.8 ± 5.3 | 1300.7 ± 5.3 | 1283.7 ± 5.3 | 1267 ± 5.3
x1 = 0.3506 | 870.527 ± 4 | 866.989 ± 4 | 863.432 ± 4 | 859.854 ± 4 | 856.248 ± 4 | 1341.3 ± 5.3 | 1324.1 ± 5.3 | 1307.1 ± 5.3 | 1290.2 ± 5.3 | 1273.4 ± 5.3
x1 = 0.4003 | 876.48 ± 4 | 872.967 ± 4 | 869.437 ± 4 | 865.888 ± 4 | 862.315 ± 4 | 1347.5 ± 5.3 | 1330.3 ± 5.3 | 1313.3 ± 5.3 | 1296.4 ± 5.3 | 1279.8 ± 5.3
x1 = 0.4485 | 881.984 ± 4 | 878.492 ± 4 | 874.989 ± 4 | 871.466 ± 4 | 867.921 ± 4 | 1353.3 ± 5.3 | 1336.2 ± 5.3 | 1319.2 ± 5.3 | 1302.4 ± 5.3 | 1285.7 ± 5.3
x1 = 0.4981 | 887.228 ± 4 | 883.761 ± 4 | 880.283 ± 4 | 876.786 ± 4 | 873.27 ± 4 | 1359.2 ± 5.3 | 1342.1 ± 5.3 | 1325.1 ± 5.3 | 1308.3 ± 5.3 | 1291.8 ± 5.3
x1 = 0.549 | 892.419 ± 4 | 888.971 ± 4 | 885.516 ± 4 | 882.044 ± 4 | 878.557 ± 4 | 1365.4 ± 5.3 | 1348.2 ± 5.3 | 1331.3 ± 5.3 | 1314.5 ± 5.3 | 1298 ± 5.3
x1 = 0.5979 | 897.108 ± 4 | 893.686 ± 4 | 890.251 ± 4 | 886.802 ± 4 | 883.336 ± 4 | 1371.3 ± 5.3 | 1354.1 ± 5.3 | 1337.1 ± 5.3 | 1320.3 ± 5.3 | 1303.8 ± 5.3
x1 = 0.6483 | 901.8 ± 4 | 898.401 ± 4 | 894.993 ± 4 | 891.566 ± 4 | 888.123 ± 4 | 1377.6 ± 5.3 | 1360.3 ± 5.3 | 1343.3 ± 5.3 | 1326.5 ± 5.3 | 1310 ± 5.3
x1 = 0.6971 | 906.089 ± 4 | 902.72 ± 4 | 899.338 ± 4 | 895.935 ± 4 | 892.514 ± 4 | 1383.8 ± 5.3 | 1366.4 ± 5.3 | 1349.3 ± 5.3 | 1332.5 ± 5.3 | 1315.9 ± 5.3
x1 = 0.7444 | 910.065 ± 4 | 906.721 ± 4 | 903.359 ± 4 | 899.982 ± 4 | 896.583 ± 4 | 1389.8 ± 5.3 | 1372.2 ± 5.3 | 1355 ± 5.3 | 1338.1 ± 5.3 | 1321.6 ± 5.3
x1 = 0.7997 | 914.585 ± 4 | 911.263 ± 4 | 907.929 ± 4 | 904.583 ± 4 | 901.213 ± 4 | 1397.4 ± 5.3 | 1379.5 ± 5.3 | 1362 ± 5.3 | 1345 ± 5.3 | 1328.3 ± 5.3
x1 = 0.8466 | 918.226 ± 4 | 914.903 ± 4 | 911.586 ± 4 | 908.265 ± 4 | 904.921 ± 4 | 1404.4 ± 5.3 | 1386 ± 5.3 | 1368.2 ± 5.3 | 1350.9 ± 5.3 | 1334.1 ± 5.3
x1 = 0.901 | 922.256 ± 4 | 918.92 ± 4 | 915.606 ± 4 | 912.298 ± 4 | 908.979 ± 4 | 1413 ± 5.3 | 1394 ± 5.3 | 1375.7 ± 5.3 | 1358 ± 5.3 | 1341 ± 5.3
x1 = 0.9495 | 925.7 ± 4 | 922.407 ± 4 | 919.075 ± 4 | 915.767 ± 4 | 912.465 ± 4 | 1421.1 ± 5.3 | 1401.3 ± 5.3 | 1382.5 ± 5.3 | 1364.4 ± 5.3 | 1347 ± 5.3
x1 = 1 | 928.794 ± 4 | 925.509 ± 4 | 922.217 ± 4 | 918.88 ± 4 | 915.567 ± 4 | 1431.5 ± 5.3 | 1410.3 ± 5.3 | 1390.4 ± 5.3 | 1371.5 ± 5.3 | 1353.6 ± 5.3

From the NIST ThermoML archive (doi:10.1016/j.jct.2016.09.007)
